Laboratory results as given in patent US5494907A, “11-β substituted-19-nor steroids” (Roussel UCLAF, priority 1993, dated 1996).

Columns and labels:
[1] = biological target: T1, hGR (recombinant human glucocorticoid receptor) (Homo sapiens, UniProt P04150); experiment: Relative bond affinity (RBA) on recombinant human glucocorticoid receptor, displacement of tritiated 6,21-dimethyl-Δ1,4,6-pregnatrien-11β,17β-diol-20-yn-3-one; type: binding; conditions: for RBA hGR: Dexamethasone = 100, 0° C., 24 hours; for affinity for the glucocorticoid receptor (in words): conclusion in words
T1 construct: made in house; host or cells: SF9 insect cells, recombinant baculovirus
T1 sequence (P04150 1-777): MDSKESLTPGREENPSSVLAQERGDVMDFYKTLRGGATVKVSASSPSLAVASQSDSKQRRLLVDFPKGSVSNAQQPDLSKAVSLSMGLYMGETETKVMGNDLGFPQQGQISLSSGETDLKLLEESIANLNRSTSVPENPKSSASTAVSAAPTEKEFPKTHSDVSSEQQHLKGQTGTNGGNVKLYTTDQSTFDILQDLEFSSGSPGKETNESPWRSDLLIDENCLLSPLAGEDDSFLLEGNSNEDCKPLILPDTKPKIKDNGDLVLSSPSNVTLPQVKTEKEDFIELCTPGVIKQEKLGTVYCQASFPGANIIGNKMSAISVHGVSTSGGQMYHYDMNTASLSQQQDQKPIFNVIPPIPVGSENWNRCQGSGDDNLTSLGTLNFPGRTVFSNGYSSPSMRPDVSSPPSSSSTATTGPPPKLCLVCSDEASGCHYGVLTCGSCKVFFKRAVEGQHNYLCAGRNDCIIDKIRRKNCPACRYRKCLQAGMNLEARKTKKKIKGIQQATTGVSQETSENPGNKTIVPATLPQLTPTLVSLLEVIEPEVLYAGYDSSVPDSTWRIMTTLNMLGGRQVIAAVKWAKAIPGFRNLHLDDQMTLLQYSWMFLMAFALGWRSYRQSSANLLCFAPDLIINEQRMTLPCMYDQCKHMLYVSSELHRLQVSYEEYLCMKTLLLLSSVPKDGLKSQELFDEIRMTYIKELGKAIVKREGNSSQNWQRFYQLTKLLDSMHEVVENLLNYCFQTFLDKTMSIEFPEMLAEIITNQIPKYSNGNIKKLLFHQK
From the text: 1--Activity on the hormonal receptors using either the natural hormonal receptor of a rat (AR), or the recombinant human receptor (PR, GR and ER).
Human glucocorticoid receptor
A supernatant of SF9 cells containing the recombinant human glucocorticoid receptor was obtained by the process described above for the progesterone receptor using the cDNA fragment described HOLLENBERG et al. (Nature (1985), Vol. 318 No. 19/26, p. 635) containing the region coding for the human glucocorticoid receptor. The cells were lysed in a lysis buffer (2). The supernatant was incubated at 0° C. for 24 hours with a constant concentration (T) of 6,21-dimethyl-Δ1,4,6-pregnatrien-11β,17β-diol-20-yn-3-one tritiated in the presence of increasing concentrations either of unlabelled dexamethasone (0-1000×10^-9 M), or of the unlabelled product under test (1 to 25000×10^-9 M). The concentration of bound tritiated 6,21-dimethyl-Δ1,4,6-pregnatrien-11β,17β-diol-20-yn-3-one (B) was then measured in each incubate by the technique of adsorption with carbon dextran.
Calculation of the relative bond affinity (RBA).
The following 2 curves were traced: percentage of bound tritiated hormone B/BO as a function of the logarithm of the concentration of unlabelled reference hormone or as a function of the logarithm of the concentration of the unlabelled product under test.
The straight line of the following equation was determined:
BO=Concentration of bound tritiated hormone in the absence of any unlabelled product,
B=Concentration of bound tritiated hormone in the presence of a concentration X of unlabelled product,
B min=Concentration of bound tritiated hormone in the presence of a large excess of cold reference hormone (500 nM). The intersections of the straight line I50 and the curves allowed the evaluation of the concentrations of unlabelled reference hormone (CH) and of the unlabelled product under test (CX) which inhibited by 50% the specific binding of the tritiated hormone on the receptor.
The relative bond affinity (RBA) of the product under test was determined by the equation:
The RBA's of the reference products estradiol, progesterone, dexamethasone and testosterone were arbitrarily taken to be equal to 100.

[2] = test system: MCF-7 human breast tumour cells; experiment: Anti-proliferative activity on the growth of MCF-7 human breast tumour cells (DNA dosage); type: cell-based; conditions: MCF7, stimulated by EGF + PDGF, D7 to D9, read-out: IC50, concentration which inhibited by 50% the growth of the MCF-7 cells
Experimental: 2--Anti-proliferative activity on the growth of MCF-7 human breast tumour cells
The MCF-7 lines were maintained in culture in a base medium (according to 1) containing 5% of foetal calf serum at 37° C. under a humid atmosphere containing 5% CO2. The subconfluent cells were collected by trypsination (0.1% trypsin, 0.02% EDTA) and then rinsed by gentle centrifuging. A sample of the cells in suspension was counted with a Malassez cell.
The cells were resuspended in a base medium without phenol red in the presence of 5% of steroid-free FCS, and stimulated either by 0.1 nM of estradiol, or by 10 ng/ml of EGF+1 ng/ml of PDGF. The cells were seeded at a rate of 50,000 cells per well in multi-well plates (24 wells of 2.5 cm^2). Twenty-four hours after the seeding (DO), the product to be tested was added to the mixture in ethanolic solution (final concentration of ethanol: 0.1%), at a concentration of 10^-11 to 10^-6 M, the control wells receiving the same concentration of ethanol. The media containing the products were renewed every 48 hours. At the end of the experiment (D7 to D9), the mixture was extracted and the cells were immediately fixed with 250 microliters of methanol to dose the DNA. The anti-proliferative activity of the products was evaluated by their capacity to inhibit the increase of DNA relative to the control.
The DNA was dosed by a fluorimetric method using DABA (3,5diaminobenzoic acid) (according to 2): 200 microliters of DABA were added to each well and the plates were incubated for 45 minutes at 56° C. Then, 2 ml of 1N HCl were added and the fluorescence was measured using a fluorimeter (excitation wavelength: 408 nm, emission wavelength: 510 nm). The quantity of DNA per well was evaluated relative to a reference scale obtained by treating a calf thymus DNA standard under the same conditions.
The concentration in nM which inhibited by 50% the growth of the MCF-7 cells stimulated by EGF +PDGF (IC50) was determined in the manner indicated above.

SMILES	RBA hGR [1]	affinity for the glucocorticoid receptor (in words) [1]	IC50 [2] [pM]
CCCCNS(=O)(=O)CCCCCOc1ccc([C@H]2C[C@]3(C)[C@@H](O)CC[C@H]3[C@@H]3CCc4cc(O)ccc4[C@H]32)cc1 [Example 2, N-butyl-5-[4-(Δ1,3,5(10)-estratrien-3,17β-diol-11β-yl)phenoxy]-pentanesulfonamide]	82	marked affinity	16
CCCCN(C)S(=O)(=O)CCCCCOc1ccc([C@H]2C[C@]3(C)[C@@H](O)CC[C@H]3[C@@H]3CCc4cc(O)ccc4[C@H]32)cc1 [Example 7, N-butyl-5-[4-(Δ1,3,5(10)-estratrien-3,17β-diol-11β-yl)phenoxy]-N-methyl-pentanesulfonamide]	152	marked affinity	15
CN(CC(F)(F)C(F)(F)C(F)(F)F)S(=O)(=O)CCCCCOc1ccc([C@H]2C[C@]3(C)[C@@H](O)CC[C@H]3[C@@H]3CCc4cc(O)ccc4[C@H]32)cc1 [Example 8, 5-[4-(Δ1,3,5(10)-estratrien-3,17β-diol-11βyl)-Phenoxy]-N-(2,2,3,3,4,4,4-heptafluorobutyl)-N-methyl-pentanesulfonamide]	114	marked affinity	26
